Results reported in the supplement of paper PMC9334596.
Where a name gives a salt, the structure may show the parent alone.

System: mPer2Luc MEF
Test: PER2::LUC luminescence relative to vehicle control (fold of vehicle); higher = higher PER2::LUC reporter signal
Method: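 Secondary dose-response validation of 72 circadian-modulating compounds in mPer2Luc MEFs, threefold dilution series of six doses from 10 uM down to 0.04 uM. PER2::LUC luminescence read at 24 h and 30 h after treatment, normalised to vehicle (DMSO) control.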

[1] = time after treatment: 24-hour, concentration: 0.04μM
[2] = time after treatment: 24-hour, concentration: 0.37μM
[3] = time after treatment: 24-hour, concentration: 3.33μM
[4] = time after treatment: 24-hour, concentration: 10μM
[5] = time after treatment: 30-hour, concentration: 0.04μM
[6] = time after treatment: 30-hour, concentration: 0.37μM
[7] = time after treatment: 30-hour, concentration: 3.33μM
[8] = time after treatment: 30-hour, concentration: 10μM

| Compound | PER2::LUC luminescence [1] | PER2::LUC luminescence [2] | PER2::LUC luminescence [3] | PER2::LUC luminescence [4] | PER2::LUC luminescence [5] | PER2::LUC luminescence [6] | PER2::LUC luminescence [7] | PER2::LUC luminescence [8] |
| --- | --- | --- | --- | --- | --- | --- | --- | --- |
| C[C@@H](O[C@H]1OCCN(Cc2nn(P(=O)(O)O)c(=O)[nH]2)[C@H]1c1ccc(F)cc1)c1cc(C(F)(F)F)cc(C(F)(F)F)c1 [Fosaprepitant dimeglumine] | 1.06 | 1.02 | 0.627 | 0.456 | 0.978 | 0.951 | 0.891 | 0.849 |
| NCC(=O)N1C[C@H](NC(=O)c2ccccc2)C[C@H]1C(=O)O [GAP-134 (Hydrochloride)] | 0.994 | 0.988 | 1.05 | 1.04 | 1.04 | 1.04 | 1.06 | 1.02 |
| CC(C)NC[C@@H](C(=O)N1CCN(c2ncnc3c2[C@H](C)C[C@H]3O)CC1)c1ccc(Cl)cc1 [GDC-0068] | 0.898 | 0.743 | 0.674 | 0.481 | 0.917 | 0.776 | 0.619 | 0.434 |
| Cc1ccc(NC(=O)Nc2cc(C(F)(F)F)ccc2F)cc1Nc1ccc2c(c1)NC(=O)/C2=C\c1ccc[nH]1 [GNF-5837] | 1.07 | 1.06 | 1.15 | 0.539 | 1.05 | 1.05 | 1.2 | 0.751 |
| CC(C)c1onc(-c2c(Cl)cccc2Cl)c1COc1ccc(/C=C/c2cccc(C(=O)O)c2)c(Cl)c1 [GW4064] | 1.04 | 1.08 | 1.24 | 1.88 | 1.08 | 1.1 | 1.32 | 2.19 |
| COc1cc(OC)cc(C(=O)Nc2ccc(Cl)c(-c3nc4ccc(N(C)C)cc4[nH]3)c2)c1 [HhAntag] | 1.03 | 1.07 | 1.03 | 1.12 | 0.988 | 1.04 | 1.12 | 1.44 |
| O=C(Cc1ccc(-c2ccc(OCCN3CCOCC3)cc2)cn1)NCc1ccccc1 [KX2-391] | 0.85 | 0.597 | 0.429 | 0.365 | 0.786 | 0.627 | 0.497 | 0.478 |
| Cc1cc2sc(NC(=O)Cc3ccccc3)nc2cc1Cl [LH-846] | 1.17 | 1.3 | 1.46 | 1.28 | 1.37 | 1.53 | 1.75 | 1.26 |
